Patent publication US4256757A, “1-Substituted imidazoles for inhibition of thromboxane synthetase” (Ono Pharmaceutical Co., Ltd., priority 1978, dated 1981)
Values after ≈ are worked out from the molar mass of the structure shown. Where a name gives a salt, the structure may show the parent alone.

Legend:
[1] = biological target: T1, thromboxane synthetase from rabbit platelet microsomes (Oryctolagus cuniculus, UniProt G1TAZ9); assay: inhibition of thromboxane synthetase (conversion of prostaglandin H2 into thromboxane B2); assay type: biochemical
T1 construct: thromboxane synthetase from rabbit platelet microsomes; from tissue; host or cells: rabbit platelet microsomes
T1 sequence (G1TAZ9 1-530): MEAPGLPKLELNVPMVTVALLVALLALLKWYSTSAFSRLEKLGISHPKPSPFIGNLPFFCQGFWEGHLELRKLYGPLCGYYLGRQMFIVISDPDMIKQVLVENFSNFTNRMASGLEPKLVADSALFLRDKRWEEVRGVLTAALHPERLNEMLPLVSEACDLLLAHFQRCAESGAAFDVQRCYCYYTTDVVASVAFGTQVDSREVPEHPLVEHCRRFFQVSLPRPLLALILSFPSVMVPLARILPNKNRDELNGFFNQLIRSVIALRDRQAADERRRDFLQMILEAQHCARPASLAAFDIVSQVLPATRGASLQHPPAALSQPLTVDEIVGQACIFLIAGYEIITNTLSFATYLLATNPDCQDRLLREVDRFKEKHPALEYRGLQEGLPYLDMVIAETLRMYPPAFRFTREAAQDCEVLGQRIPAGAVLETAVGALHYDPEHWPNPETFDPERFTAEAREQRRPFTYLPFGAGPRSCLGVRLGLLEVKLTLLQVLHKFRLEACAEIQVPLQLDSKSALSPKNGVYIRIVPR

[2] = tested on: arachidonic acid-induced blood platelet aggregation in platelet-rich plasma of rats; assay: inhibition of arachidonic acid-induced blood platelet aggregation in platelet-rich plasma; assay type: cell-based; conditions: Rattus norvegicus, read-out: concentration producing a 50% inhibition of arachidonic acid-induced blood platelet aggregation, in comparison with controls
thromboxane synthetase [3] = conditions: reported in Prostaglandins, 13(4), 611(1977); cited from earlier work
[4] = tested on: arachidonic acid-induced sudden deaths of rabbits; assay: inhibitory effect on arachidonic acid-induced sudden deaths; assay type: in vivo; conditions: oral administration, 100 mg/kg animal body weight
acute toxicity test = conditions: mouse, in vivo; ICR-stain male mice (7 weeks old), intravenous administration
thromboxane synthetase [5] = assay: inhibitory action for thromboxane synthetase (prior art); assay type: biochemical; conditions: prior-art compound, comparison in words
Source text: However, since their inhibitory action for thromboxane synthetase is weak, these compounds are hardly applicable as practically effective medicines.
On the other hand, N-(6-methoxycarbonylhexyl)imidazole has already been synthesized by P. Matthias et al, and publicly known [Monatsch Chem., 108(5), 1059(1977)].

IC50 [1]	IC50 [2]	SMILES	other results
1000 nM	0.052 µg/mL (≈ 0.206 µM)	CCOC(=O)C(C)CCCCCCn1ccnc1 (racemic) [1-[(7RS)-7-ethoxycarbonyloctyl]imidazole]	
		c1c[nH]cn1 [imidazole]	inhibitory action for thromboxane synthetase (thromboxane synthetase [3]): weak
30 nM	0.44 µg/mL (≈ 1.65 µM)	CCOC(=O)C(C)(C)CCCCCCn1ccnc1 [1-(7-ethoxycarbonyl-7-methyloctyl)imidazole]	
90 nM		CCCCC(CCCn1ccnc1)C(=O)OCC (racemic) [1-[(4RS)-4-ethoxycarbonyloctyl]imidazole]	
16 nM		O=C(O)CCCC/C=C\Cn1ccnc1 [(Z)-1-(7-carboxy-2-heptenyl)imidazole hydrochloride]	
		Cn1ccnc1 [1-methylimidazole]	inhibitory action for thromboxane synthetase (thromboxane synthetase [3]): weak
	4 µg/mL	Cl.O=C(O)C#CCCCCCn1ccnc1 [1-(7-carboxy-6-heptynyl)imidazole hydrochloride]	
130 nM	0.53 µg/mL	CC(CCCCCn1ccnc1)CC(=O)O.Cl (racemic) [1-[(6RS)-7-carboxy-6-methylheptyl]imidazole hydrochloride]	
		COC(=O)CCCCCCn1ccnc1 [N-(6-methoxycarbonylhexyl)imidazole]	inhibitory effect on thromboxane synthetase compared with imidazole or 1-methylimidazole (thromboxane synthetase [5]): stronger inhibitory effect
71 nM	0.18 µg/mL	CC(C)(CCCCCCC(=O)O)n1ccnc1.Cl [1-(7-carboxy-1,1-dimethylheptyl)imidazole hydrochloride]	
200 nM		O=C(O)/C=C\CCCCCn1ccnc1 [(Z)-1-(7-carboxy-6-heptenyl)imidazole hydrochloride]	

SMILES	IC50 [1]	IC50 [2]	other results
CC(CCCCCCn1ccnc1)C(=O)O.Cl (racemic) [1-[(7RS)-7-carboxyoctyl]imidazole hydrochloride]		0.17 µg/mL	inhibitory effect on arachidonic acid-induced sudden deaths [4]: inhibitory effect; LD50 (acute toxicity test): 540 mg/kg
Cl.O=C(O)CCCCC#CCn1ccnc1 [1-(7-carboxy-2-heptynyl)imidazole hydrochloride]		0.21 µg/mL	inhibitory effect on arachidonic acid-induced sudden deaths [4]: inhibitory effect
CC(C)(CCCCCCn1ccnc1)C(=O)O.Cl [1-(7-carboxy-7-methyloctyl)imidazole hydrochloride]		0.091 µg/mL	inhibitory effect on arachidonic acid-induced sudden deaths [4]: inhibitory effect; LD50 (acute toxicity test): 330 mg/kg
